Measured values published in US12581252B2, “Substituted pyrrolo[3,4-b]pyridines as PI3K-α inhibitors” (Relay Therapeutics, Inc., priority 2020, dated 2026).
pIC50: −log10 of the molar value.

Molecular target: H1047R PIK3CA enzyme (Homo sapiens, UniProt P42336, H1047R)
Experiment: ADP-Glo Biochemical PIK3CA Kinase Assay

Chain of H1047R PIK3CA enzyme (P42336 whole entry H1047R): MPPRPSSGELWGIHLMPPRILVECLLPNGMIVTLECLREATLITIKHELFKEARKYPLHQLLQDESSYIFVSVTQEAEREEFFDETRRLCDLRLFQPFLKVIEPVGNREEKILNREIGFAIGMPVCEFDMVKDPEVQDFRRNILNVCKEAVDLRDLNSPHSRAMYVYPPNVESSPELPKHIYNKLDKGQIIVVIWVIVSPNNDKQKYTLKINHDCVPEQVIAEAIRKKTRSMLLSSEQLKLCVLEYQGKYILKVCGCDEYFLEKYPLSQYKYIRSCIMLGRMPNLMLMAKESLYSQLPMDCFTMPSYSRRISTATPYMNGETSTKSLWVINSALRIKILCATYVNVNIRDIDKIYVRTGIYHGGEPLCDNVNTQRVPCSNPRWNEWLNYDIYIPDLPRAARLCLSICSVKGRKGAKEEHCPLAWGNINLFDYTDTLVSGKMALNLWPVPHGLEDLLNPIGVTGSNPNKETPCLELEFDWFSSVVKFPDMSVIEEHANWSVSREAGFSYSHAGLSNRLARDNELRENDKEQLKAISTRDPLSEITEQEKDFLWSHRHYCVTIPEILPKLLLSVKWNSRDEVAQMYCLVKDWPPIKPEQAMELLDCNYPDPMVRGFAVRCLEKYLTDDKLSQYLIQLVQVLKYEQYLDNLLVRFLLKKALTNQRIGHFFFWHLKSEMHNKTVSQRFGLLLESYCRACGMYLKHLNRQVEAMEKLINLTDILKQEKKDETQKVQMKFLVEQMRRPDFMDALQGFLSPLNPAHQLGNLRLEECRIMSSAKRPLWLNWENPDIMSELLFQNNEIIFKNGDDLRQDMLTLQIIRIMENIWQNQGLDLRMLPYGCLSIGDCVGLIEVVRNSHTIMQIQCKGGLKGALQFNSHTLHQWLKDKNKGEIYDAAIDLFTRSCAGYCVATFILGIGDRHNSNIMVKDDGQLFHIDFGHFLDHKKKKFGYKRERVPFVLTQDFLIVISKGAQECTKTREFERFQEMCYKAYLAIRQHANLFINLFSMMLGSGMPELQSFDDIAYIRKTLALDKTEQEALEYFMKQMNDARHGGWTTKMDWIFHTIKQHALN
Chain of H1047R PIK3CA enzyme (P27986 whole entry partner): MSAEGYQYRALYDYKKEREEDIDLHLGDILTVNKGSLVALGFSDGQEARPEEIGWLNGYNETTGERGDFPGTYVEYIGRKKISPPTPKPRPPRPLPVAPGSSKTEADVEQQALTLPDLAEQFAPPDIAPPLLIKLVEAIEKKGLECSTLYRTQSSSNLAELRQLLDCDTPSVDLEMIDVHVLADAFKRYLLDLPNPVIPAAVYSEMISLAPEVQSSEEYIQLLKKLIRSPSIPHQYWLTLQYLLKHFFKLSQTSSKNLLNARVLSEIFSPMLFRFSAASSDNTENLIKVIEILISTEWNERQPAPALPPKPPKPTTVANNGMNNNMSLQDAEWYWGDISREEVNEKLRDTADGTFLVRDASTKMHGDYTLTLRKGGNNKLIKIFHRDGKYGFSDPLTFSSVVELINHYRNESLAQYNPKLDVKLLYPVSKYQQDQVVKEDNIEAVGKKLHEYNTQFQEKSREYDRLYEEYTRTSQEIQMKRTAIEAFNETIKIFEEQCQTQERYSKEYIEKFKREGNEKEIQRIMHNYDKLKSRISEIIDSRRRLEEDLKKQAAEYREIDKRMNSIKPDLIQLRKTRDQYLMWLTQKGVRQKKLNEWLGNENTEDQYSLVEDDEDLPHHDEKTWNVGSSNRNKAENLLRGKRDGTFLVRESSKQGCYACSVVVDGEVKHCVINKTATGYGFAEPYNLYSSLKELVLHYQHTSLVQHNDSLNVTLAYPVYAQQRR

Structure (SMILES)	pIC50
Cn1cc(-c2cc(NC(=O)c3cc(F)cc(C(F)(F)F)c3)c3c(c2)C(=O)NC3c2cc(F)ccc2Cl)nn1 (stereo not shown) [Compound I-879]	≥ 7.00
Cn1c(Nc2cccc3c2C(c2cc(F)ccc2Cl)NC3=O)nnc1C1CC1 (stereo not shown) [Compound I-880]	4.00 to 5.00
COc1ncc(-c2cc(NC(=O)c3cc(F)cc(C(F)(F)F)c3)c3c(c2)C(=O)N[C@@H]3c2cc(F)ccc2Cl)cn1 [Compound I-881]	5.00 to 6.00
O=C(Nc1cc(-c2cnc3nccn3c2)cc2c1[C@@H](c1cc(F)ccc1Cl)NC2=O)c1cc(F)cc(C(F)(F)F)c1 [Compound I-883]	5.00 to 6.00
Nc1ncc(-c2cc(NC(=O)c3cc(F)cc(C(F)(F)F)c3)c3c(c2)C(=O)NC3c2cc(F)ccc2Cl)cn1 (stereo not shown) [Compound I-885]	≥ 7.00
N#Cc1ncc(-c2cc(NC(=O)c3cc(F)cc(C(F)(F)F)c3)c3c(c2)C(=O)NC3c2cc(F)ccc2Cl)cn1 (stereo not shown) [Compound I-886]	≥ 7.00
O=C(Nc1cc(-c2cccnc2)cc2c1C(c1cc(F)ccc1Cl)NC2=O)c1cc(F)cc(C(F)(F)F)c1 (stereo not shown) [Compound I-888]	≥ 7.00
Cn1ccc(-c2cc(NC(=O)c3cc(F)cc(C(F)(F)F)c3)c3c(c2)C(=O)NC3c2cc(F)ccc2Cl)cc1=O (stereo not shown) [Compound I-889]	≥ 7.00
Cc1cnccc1-c1cc(NC(=O)c2cc(F)cc(C(F)(F)F)c2)c2c(c1)C(=O)NC2c1cc(F)ccc1Cl (stereo not shown) [Compound I-890]	≥ 7.00
COc1cccc(-c2cc(NC(=O)c3cc(F)cc(C(F)(F)F)c3)c3c(c2)C(=O)NC3c2cc(F)ccc2Cl)n1 (stereo not shown) [Compound I-891]	≥ 7.00
O=C(Nc1cc(-c2cccnc2C(F)(F)F)cc2c1C(c1cc(F)ccc1Cl)NC2=O)c1cc(F)cc(C(F)(F)F)c1 (stereo not shown) [Compound I-892]	≥ 7.00
O=C(Nc1cc(-c2ccc3ncccc3c2)cc2c1[C@@H](c1cc(F)ccc1Cl)NC2=O)c1cc(F)cc(C(F)(F)F)c1 [Compound I-893]	5.00 to 6.00
Cc1ncc(-c2cc(NC(=O)c3cc(F)cc(Cl)c3)c3c(c2)C(=O)N[C@@H]3c2cc(F)ccc2Cl)cn1 [Compound I-895]	4.00 to 5.00
Cc1ncc(-c2cc(NC(=O)c3cc(F)cc(Cl)c3)c3c(c2)C(=O)N[C@H]3c2cc(F)ccc2Cl)cn1 [Compound I-896]	≥ 7.00
CC(C)(O)CNc1cc(NC(=O)c2cc(F)cc(C(F)(F)F)c2)c2c(c1)C(=O)N[C@H]2c1cc(F)ccc1Cl [Compound I-899]	4.00 to 5.00
O=C(Nc1cccc2c1C(c1ccccc1C1COC1)NC2=O)c1cc(F)cc(C(F)(F)F)c1 (stereo not shown) [Compound I-907]	4.00 to 5.00
O=C(Nc1cc(Br)cc2c1C(c1cc(F)ccc1Cl)NC2=O)c1cc(C(F)(F)F)cc(F)c1F (stereo not shown) [Compound I-908]	5.00 to 6.00
O=C(Nc1cc(Br)cc2c1C(c1cc(F)ccc1Cl)NC2=O)c1cncc(Cl)c1 (stereo not shown) [Compound I-909]	5.00 to 6.00
N#Cc1cc(F)cc(C(=O)Nc2cc(Br)cc3c2C(c2cc(F)ccc2Cl)NC3=O)c1 (stereo not shown) [Compound I-910]	5.00 to 6.00
O=C(Nc1cc(Br)cc2c1C(c1cc(F)ccc1Cl)NC2=O)c1cc(Cl)ccc1C(F)F (stereo not shown) [Compound I-911]	5.00 to 6.00
CS(=O)(=O)c1cc(F)cc(C(=O)Nc2cc(Br)cc3c2C(c2cc(F)ccc2Cl)NC3=O)c1 (stereo not shown) [Compound I-912]	4.00 to 5.00
O=C(Nc1cc(-c2ncc[nH]2)cc2c1[C@@H](c1cc(F)ccc1Cl)NC2=O)c1cc(F)cc(C(F)(F)F)c1 [Compound I-918]	6.00 to 6.30
O=C(Nc1cccc2c1C(c1ccccc1C1CC1)NC2=O)c1cc(F)cc(C(F)(F)F)c1 (stereo not shown) [Compound I-925]	6.30 to 7.00

Structure (SMILES)	pIC50
O=C(Nc1cc(-c2n[nH]c3ccncc23)cc2c1C(c1cc(F)ccc1Cl)NC2=O)c1cc(F)cc(C(F)(F)F)c1 (stereo not shown) [Compound I-938]	6.30 to 7.00
O=C(Nc1cccc2c(=O)[nH]n(-c3cccc(Cl)c3)c12)c1cc(F)cc(C(F)(F)F)c1 [Compound I-950]	5.00 to 6.00
Cc1cc(F)cc(C(=O)Nc2cc(Br)cc3c2C(c2cc(F)ccc2Cl)NC3=O)c1 (stereo not shown) [Compound I-951]	5.00 to 6.00
O=C(Nc1cc(Br)cc2c1C(c1cc(F)ccc1Cl)NC2=O)c1ccc(Cl)c(C(F)(F)F)c1 (stereo not shown) [Compound I-952]	6.30 to 7.00
O=C(Cc1c[nH]c2ccccc12)Nc1cc(Br)cc2c1C(c1cc(F)ccc1Cl)NC2=O (stereo not shown) [Compound I-953]	4.00 to 5.00
O=C(O)c1cc(F)cc(C(=O)Nc2cc(Br)cc3c2C(c2cc(F)ccc2Cl)NC3=O)c1 (stereo not shown) [Compound I-954]	4.00 to 5.00
O=C(Cc1n[nH]c2ccccc12)Nc1cc(Br)cc2c1C(c1cc(F)ccc1Cl)NC2=O (stereo not shown) [Compound I-955]	4.00 to 5.00
O=C1NC(c2cc(F)ccc2Cl)c2c(NC(=O)c3c[nH]c4cccc(Cl)c34)cc(Br)cc21 (stereo not shown) [Compound I-956]	5.00 to 6.00
O=C(Nc1cc(Br)cc2c1C(c1cc(F)ccc1Cl)NC2=O)c1cncc(C(F)(F)F)c1 (stereo not shown) [Compound I-957]	5.00 to 6.00
O=C(Nc1cc(Br)cc2c1C(c1cc(F)ccc1Cl)NC2=O)c1cncc(F)c1 (stereo not shown) [Compound I-958]	4.00 to 5.00
CC(C)(O)Cc1cc(NC(=O)c2cc(F)cc(Cl)c2)c2c(c1)C(=O)N[C@H]2c1cc(F)ccc1Cl [Compound I-963]	6.00 to 6.30
Cc1cc2nccnc2cc1-c1cc(NC(=O)c2cc(F)cc(C(F)(F)F)c2)c2c(c1)C(=O)NC2c1cc(F)ccc1Cl (stereo not shown) [Compound I-975]	6.30 to 7.00
COCCOc1cc(NC(=O)c2cc(F)cc(C(F)(F)F)c2)c2c(c1)C(=O)NC2c1cc(F)ccc1Cl (stereo not shown) [Compound I-977]	6.30 to 7.00
N#Cc1ncc(-c2cc(NC(=O)c3cc(F)cc(C(F)(F)F)c3)c3c(c2)C(=O)N[C@H]3c2cc(F)ccc2Cl)cn1 [Compound I-979]	6.30 to 7.00
O=C1NCc2c(NC(=O)N3CCCCC3Cc3ccccc3)cccc21 (stereo not shown) [Compound I-990]	4.00 to 5.00
COc1cc(C(=O)Nc2cc(Br)cc3c2C(c2cc(F)ccc2Cl)NC3=O)cc(Cl)c1F (stereo not shown) [Compound I-991]	6.30 to 7.00
O=C1NC(c2cc(F)ccc2Cl)c2c(NC(=O)N3CCCc4ccc(Cl)cc43)cc(Br)cc21 (stereo not shown) [Compound I-992]	5.00 to 6.00
N#Cc1ccc(-c2cc(NC(=O)c3cc(F)cc(C(F)(F)F)c3)c3c(c2)C(=O)N[C@H]3c2cc(F)ccc2Cl)cn1 [Compound I-996]	6.00 to 6.30
Cn1ccc2c(F)cc(C(=O)Nc3cc(Br)cc4c3C(c3cc(F)ccc3Cl)NC4=O)cc21 (stereo not shown) [Compound I-1005]	5.00 to 6.00
O=C(Nc1cc(-c2cnc3ncnn3c2)cc2c1[C@@H](c1cc(F)ccc1Cl)NC2=O)c1cc(F)cc(C(F)(F)F)c1 [Compound I-1023]	6.00 to 6.30
Cn1cnc2ccc(-c3cc(NC(=O)c4cc(F)cc(C(F)(F)F)c4)c4c(c3)C(=O)NC4c3cc(F)ccc3Cl)cc21 (stereo not shown) [Compound I-1027]	≥ 7.00
O=C1Cc2c(cccc2-c2cc(NC(=O)c3cc(F)cc(C(F)(F)F)c3)c3c(c2)C(=O)NC3c2cc(F)ccc2Cl)N1 (stereo not shown) [Compound I-1034]	≥ 7.00
O=C(Nc1cc(-c2ccc3nc[nH]c3c2)cc2c1C(c1cc(F)ccc1Cl)NC2=O)c1cc(F)cc(C(F)(F)F)c1 (stereo not shown) [Compound I-1035]	≥ 7.00

Structure (SMILES)	pIC50
Cc1nc2cc(-c3cc(NC(=O)c4cc(F)cc(C(F)(F)F)c4)c4c(c3)C(=O)NC4c3cc(F)ccc3Cl)ccc2o1 (stereo not shown) [Compound I-1036]	≥ 7.00
O=C(Nc1cc(-c2ccnn2C2COC2)cc2c1C(c1cc(F)ccc1Cl)NC2=O)c1cc(F)cc(C(F)(F)F)c1 (stereo not shown) [Compound I-1037]	≥ 7.00
O=C1Cc2cc(-c3cc(NC(=O)c4cc(F)cc(C(F)(F)F)c4)c4c(c3)C(=O)NC4c3cc(F)ccc3Cl)ccc2N1 (stereo not shown) [Compound I-1041]	≥ 7.00
Cn1c(=O)[nH]c2ccc(-c3cc(NC(=O)c4cc(F)cc(C(F)(F)F)c4)c4c(c3)C(=O)NC4c3cc(F)ccc3Cl)cc21 (stereo not shown) [Compound I-1044]	≥ 7.00
O=C(Nc1cc(-c2cccc3cccnc23)cc2c1C(c1cc(F)ccc1Cl)NC2=O)c1cc(F)cc(C(F)(F)F)c1 (stereo not shown) [Compound I-1045]	≥ 7.00
O=C(Nc1ccc(F)cc1C(F)(F)F)Nc1cc(Br)cc2c1C(c1cc(F)ccc1Cl)NC2=O (stereo not shown) [Compound I-1050]	6.30 to 7.00
N#Cc1ccc(C(F)(F)F)c(NC(=O)Nc2cc(Br)cc3c2C(c2cc(F)ccc2Cl)NC3=O)c1 (stereo not shown) [Compound I-1051]	5.00 to 6.00
O=C(Nc1cc(Oc2ccncn2)cc2c1C(c1cc(F)ccc1Cl)NC2=O)c1cc(F)cc(C(F)(F)F)c1 (stereo not shown) [Compound I-1052]	6.30 to 7.00
O=C(Nc1cc(-c2ccc3ncnn3c2)cc2c1[C@H](c1cc(Cl)ccc1Cl)NC2=O)c1cc(F)cc(C(F)(F)F)c1 [Compound I-1053]	6.00 to 6.30
O=C1NC(c2cc(F)ccc2Cl)c2c(Nc3noc4ccccc34)cc(Br)cc21 (stereo not shown) [Compound I-1058]	4.00 to 5.00
O=C(Nc1cc(-c2ccc3ncnn3c2)cc2c1[C@H](c1cc(F)c(F)cc1Cl)NC2=O)c1cc(F)cc(C(F)(F)F)c1 [Compound I-1059]	5.00 to 6.00
O=C1NC(c2cc(F)ccc2Cl)c2c(Nc3nsc4ccccc34)cc(Br)cc21 (stereo not shown) [Compound I-1060]	4.00 to 5.00
O=C(Nc1cc(-n2cccn2)cc2c1[C@@H](c1cc(F)ccc1Cl)NC2=O)c1cc(F)cc(C(F)(F)F)c1 [Compound I-1070]	5.00 to 6.00
Cn1ccc(Nc2cc(NC(=O)c3cc(F)cc(C(F)(F)F)c3)c3c(c2)C(=O)N[C@@H]3c2cc(F)ccc2Cl)n1 [Compound I-1072]	6.00 to 6.30
CC12CC3CC(C)(C1)CC(C(=O)Nc1cccc4c1C(c1cc(F)ccc1Cl)NC4=O)(C3)C2 (stereo not shown) [Compound I-1074]	6.30 to 7.00
O=C(Nc1cc(Oc2ccccn2)cc2c1C(c1cc(F)ccc1Cl)NC2=O)c1cc(F)cc(C(F)(F)F)c1 (stereo not shown) [Compound I-1077]	6.30 to 7.00
O=C(Nc1cc(-c2cn[nH]c2)cc2c1[C@@H](c1cc(F)ccc1Cl)NC2=O)c1cc(F)cc(C(F)(F)F)c1 [Compound I-1079]	≥ 7.00
O=C(Nc1cc(-c2cscn2)cc2c1[C@@H](c1cc(F)ccc1Cl)NC2=O)c1cc(F)cc(C(F)(F)F)c1 [Compound I-1085]	5.00 to 6.00
N#CCc1cc(NC(=O)c2cc(F)cc(C(F)(F)F)c2)c2c(c1)C(=O)N[C@@H]2c1cc(F)ccc1Cl [Compound I-1087]	6.30 to 7.00
Nc1cc(-c2cc(NC(=O)c3cc(F)cc(C(F)(F)F)c3)c3c(c2)C(=O)NC3c2cc(F)ccc2Cl)ncn1 (stereo not shown) [Compound I-1089]	≥ 7.00
Nc1nccc(-c2cc(NC(=O)c3cc(F)cc(C(F)(F)F)c3)c3c(c2)C(=O)NC3c2cc(F)ccc2Cl)n1 (stereo not shown) [Compound I-1090]	≥ 7.00
